Results taken from patent US8058242B2, “Chimeric proteins with natriuretic activity” (The University of Queensland, priority 2004, dated 2011).
“And” between values parts separate entries of the source, which are not always exact repeats. Equal values may be shown once. Positions of bridges follow the written chain, without caps; N, C: chain ends. Residues, ends and D or L forms follow the SMILES beside them.

Legend:
[1] = tested on: denuded aortic rings, GC A receptor; assay: Relaxation of noradrenaline constricted endothelium-denuded aortic rings (Example 11); set-up: species or system rat; conditions: GC-A mediated
Description: Male Sprague Dawley rats were killed and the descending thoracic aorta rapidly removed and flushed with physiological solution. After being cleared of adhering fat and connective tissue, 5 mm rings were mounted under 10 g resting tension, between two stainless steel hooks, in organ baths (37° C.) containing carbogenated (95% O2 and 5% CO2) physiological salt solution of the following composition (mM): NaCl, 118.4; NaHCO3, 25; glucose, 11; KCl, 4.7; MgSO4, 1.2; KH2PO4, 1.2 and CaCl2, 2.5. The lower hook was attached to a tissue holder and the upper hook to a force displacement transducer (Grass FTO3). Where indicated endothelial cells were removed by gentle rubbing of the intimal surface with a wire. To confirm the presence or absence of endothelial cells, tissues were precontracted with a sub-maximal concentration of phenylephrine (0.3 μM) and the response to acetylcholine (ACh, 10 μM) observed. Ach-induced relaxation greater than 80% of maximum indicated the presence of endothelium; whereas Ach-induced relaxation less than 10% indicated the absence of endothelium. Ring preparations under resting tension were conditioned by two contraction/relaxation cycles with 40 mM KCl, contracted by a third application of 40 mM KCl and then relaxed with different doses of the venom peptides. Responses were expressed as a percentage relaxation of the precontraction by KCl.
In addition to the peptides tested in example 3, a series of 13 analogs corresponding to the 2a, 2b and 2c grouping of peptides were examined for their ability to dilate noradrenaline constricted aortic rings. The degree of constriction was expressed as a percentage of the KCl induced constriction. The aortic rings were prepared in a manner similar to the method described in example 3. […]. In each case there were at least 3 separate aortic rings tested per peptide and all were denuded of endothelium to ensure responses were confined to the GC A receptor.

[2] = target: T1, Natriuretic Peptide Receptor-A (NPR-A) signaling in MDCK cells (Canis lupus familiaris, UniProt A0A8I3MHU3); type: cell-based, canine; conditions: stimulation of cGMP accumulation in MDCK cells; for EC50: read-out: EC50 (M) ± Standard Error
T1 sequence (A0A8I3MHU3 32-1060): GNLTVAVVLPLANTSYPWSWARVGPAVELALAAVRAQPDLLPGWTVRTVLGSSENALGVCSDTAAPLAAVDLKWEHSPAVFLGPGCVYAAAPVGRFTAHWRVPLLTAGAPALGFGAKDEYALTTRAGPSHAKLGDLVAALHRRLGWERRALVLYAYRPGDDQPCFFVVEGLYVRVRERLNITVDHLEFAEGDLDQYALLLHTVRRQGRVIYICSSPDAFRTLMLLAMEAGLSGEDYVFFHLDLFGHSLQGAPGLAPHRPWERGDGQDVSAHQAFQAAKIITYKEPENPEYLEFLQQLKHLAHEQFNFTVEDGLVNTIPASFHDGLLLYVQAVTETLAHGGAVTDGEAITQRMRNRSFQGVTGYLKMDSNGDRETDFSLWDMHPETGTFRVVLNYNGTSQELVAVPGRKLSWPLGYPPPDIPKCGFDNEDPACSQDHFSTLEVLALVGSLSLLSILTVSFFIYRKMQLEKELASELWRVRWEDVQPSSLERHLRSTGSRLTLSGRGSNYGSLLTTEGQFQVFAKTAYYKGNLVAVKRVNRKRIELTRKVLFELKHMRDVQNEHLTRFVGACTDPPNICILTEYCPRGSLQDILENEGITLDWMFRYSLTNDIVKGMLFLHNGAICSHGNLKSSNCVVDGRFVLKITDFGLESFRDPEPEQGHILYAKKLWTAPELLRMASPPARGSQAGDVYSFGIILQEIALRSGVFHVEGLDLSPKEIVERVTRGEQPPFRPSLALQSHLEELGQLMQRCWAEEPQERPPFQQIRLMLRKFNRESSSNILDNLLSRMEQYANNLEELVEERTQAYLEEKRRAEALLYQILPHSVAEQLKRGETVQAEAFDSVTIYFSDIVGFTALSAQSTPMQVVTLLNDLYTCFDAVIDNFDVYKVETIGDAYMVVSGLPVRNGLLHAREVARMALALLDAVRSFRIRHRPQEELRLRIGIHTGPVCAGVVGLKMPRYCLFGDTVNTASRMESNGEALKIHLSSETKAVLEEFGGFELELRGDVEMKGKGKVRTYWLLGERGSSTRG

conscious rabbits = assay: Blood pressure and heart rate in conscious rabbits, intravenous infusion dose-response (Example 8); conditions: for recovery of MAP, in words: 2 hours after infusion; for MAP at final dose / Recovery (MAP) / Recovery Delta SED (MAP) / Treatment Effect, change of mean blood pressure during the infusion: Table 10B; for Recovery (MAP) / Recovery Delta SED (MAP): after a 2 hour recovery period; for Treatment Effect, change of mean blood pressure during the infusion: final dose, groups 2B and 2C

SMILES | Mean relaxation SEM of denuded aortic rings expressed as % of KCl response [1] | −Log10 EC50 (pEC50) ± Standard Error [2] | EC50 [2] [M] | recovery of MAP, in words (conscious rabbits) | MAP at final dose (conscious rabbits) [mm Hg] | Recovery (MAP) (conscious rabbits) [mm Hg] | Recovery Delta SED (MAP) (conscious rabbits) [mm Hg] | Treatment Effect, change of mean blood pressure during the infusion (conscious rabbits) [mm Hg]
CC[C@H](C)[C@H](NC(=O)[C@H](CCCCN)NC(=O)[C@H](CO)NC(=O)[C@H](CC(=O)O)NC(=O)[C@@H](N)CO)C(=O)NCC(=O)N[C@@H](CCCCN)C(=O)NCC(=O)N[C@H]1CSSC[C@@H](C(=O)N[C@@H](CC(N)=O)C(=O)N[C@@H](CCCNC(=N)N)C(=O)N[C@H](C(=O)N[C@@H](CCSC)C(=O)N[C@@H](CCC(N)=O)C(=O)N[C@@H](CC(N)=O)C(=O)N2CCC[C@H]2C(=O)N2CCC[C@H]2C(=O)N[C@@H](CCCCN)C(=O)N[C@@H](CCCCN)C(=O)N[C@@H](Cc2ccccc2)C(=O)N[C@@H](CO)C(=O)NCC(=O)N[C@@H](CCC(=O)O)C(=O)O)[C@@H](C)CC)NC(=O)CNC(=O)[C@H](CC(C)C)NC(=O)CNC(=O)[C@H](CO)NC(=O)[C@H](C(C)C)NC(=O)[C@H](CO)NC(=O)CNC(=O)[C@H]([C@@H](C)CC)NC(=O)[C@H](CCCNC(=N)N)NC(=O)[C@H](CC(=O)O)NC(=O)[C@H](CC(C)C)NC(=O)[C@@H]2CCCN2C(=O)[C@H](Cc2ccccc2)NC(=O)CNC(=O)[C@H](Cc2ccccc2)NC1=O [TNPc K7] (H-SDSKIGKGCFGFPLDRIGSVSGLGCNRIMQNPPKKFSGE-OH; disulfide 9-25; N-terminus assumed) | 50% and 46.1 ± 13.5% | 7.443 ± 0.2700 | 5.28e-08 | did not recover after 2 hours | 59.0 | 62.4 | 3.4 ± 1.9 | −14.1
CC[C@H](C)[C@@H]1NC(=O)[C@H](CCCNC(=N)N)NC(=O)[C@H](CC(=O)O)NC(=O)[C@H](CC(C)C)NC(=O)[C@@H]2CCCN2C(=O)[C@H](Cc2ccccc2)NC(=O)CNC(=O)[C@H](Cc2ccccc2)NC(=O)[C@@H](NC(=O)[C@@H]2CCCN2C(=O)[C@H](CC(=O)O)NC(=O)[C@H](Cc2ccc(O)cc2)NC(=O)[C@H](CCCCN)NC(=O)[C@@H](NC(=O)[C@@H](N)CCC(=O)O)C(C)C)CSSC[C@@H](C(=O)N[C@@H](CC(N)=O)C(=O)N[C@@H](CCCNC(=N)N)C(=O)N[C@H](C(=O)N[C@@H](CCSC)C(=O)N[C@@H](CCC(N)=O)C(=O)N[C@@H](CC(N)=O)C(=O)N2CCC[C@H]2C(=O)N2CCC[C@H]2C(=O)N[C@@H](CCCCN)C(=O)N[C@@H](CCCCN)C(=O)N[C@@H](Cc2ccccc2)C(=O)N[C@@H](CO)C(=O)NCC(=O)N[C@@H](CCC(=O)O)C(=O)O)[C@@H](C)CC)NC(=O)CNC(=O)[C@H](CC(C)C)NC(=O)CNC(=O)[C@H](CO)NC(=O)[C@H](C(C)C)NC(=O)[C@H](CO)NC(=O)CNC1=O [TNPc DTT] (H-EVKYDPCFGFPLDRIGSVSGLGCNRIMQNPPKKFSGE-OH; disulfide 7-23; N-terminus assumed) | 58.9 ± 6.7% | 7.723 ± 0.1425 | 2.12e-08 | partially recovered | 58.6 | 70.3 | 11.7 ± 5.2 | −12.4
